From patent US12275731B2, “Azaindole inhibitors of wild-type and mutant forms of LRRK2” (DANA-FARBER CANCER INSTITUTE, INC., priority 2018, dated 2025)

Key:
Test in all cases: KinomeScan profiling
Type in all cases: binding
MST1 = target: T1, MST1 (Homo sapiens, UniProt Q13043); conditions: MST1, 1 μM; read-out: % control
T1 sequence (Q13043 1-487): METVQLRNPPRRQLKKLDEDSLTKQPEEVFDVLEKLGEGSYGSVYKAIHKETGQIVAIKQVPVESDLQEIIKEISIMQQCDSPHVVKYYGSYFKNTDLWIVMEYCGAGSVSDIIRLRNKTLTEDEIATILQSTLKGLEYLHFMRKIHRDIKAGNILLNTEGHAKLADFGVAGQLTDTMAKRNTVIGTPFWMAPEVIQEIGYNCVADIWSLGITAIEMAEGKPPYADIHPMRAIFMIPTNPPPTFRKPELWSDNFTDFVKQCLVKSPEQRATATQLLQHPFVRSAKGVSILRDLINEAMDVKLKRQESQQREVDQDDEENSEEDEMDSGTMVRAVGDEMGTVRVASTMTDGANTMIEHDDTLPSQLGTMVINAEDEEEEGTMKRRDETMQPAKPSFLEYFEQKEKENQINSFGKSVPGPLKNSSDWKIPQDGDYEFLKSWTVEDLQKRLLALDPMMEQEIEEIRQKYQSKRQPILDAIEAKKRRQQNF
Summary of the method: (§1)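 Selectivity was assessed by binding competition at 1 μM against 468 kinases. Values below 35% of control define an interaction.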

TEC = target: T2, TEC (Homo sapiens, UniProt P42680); conditions: read-out: % control
T2 sequence (P42680 1-631): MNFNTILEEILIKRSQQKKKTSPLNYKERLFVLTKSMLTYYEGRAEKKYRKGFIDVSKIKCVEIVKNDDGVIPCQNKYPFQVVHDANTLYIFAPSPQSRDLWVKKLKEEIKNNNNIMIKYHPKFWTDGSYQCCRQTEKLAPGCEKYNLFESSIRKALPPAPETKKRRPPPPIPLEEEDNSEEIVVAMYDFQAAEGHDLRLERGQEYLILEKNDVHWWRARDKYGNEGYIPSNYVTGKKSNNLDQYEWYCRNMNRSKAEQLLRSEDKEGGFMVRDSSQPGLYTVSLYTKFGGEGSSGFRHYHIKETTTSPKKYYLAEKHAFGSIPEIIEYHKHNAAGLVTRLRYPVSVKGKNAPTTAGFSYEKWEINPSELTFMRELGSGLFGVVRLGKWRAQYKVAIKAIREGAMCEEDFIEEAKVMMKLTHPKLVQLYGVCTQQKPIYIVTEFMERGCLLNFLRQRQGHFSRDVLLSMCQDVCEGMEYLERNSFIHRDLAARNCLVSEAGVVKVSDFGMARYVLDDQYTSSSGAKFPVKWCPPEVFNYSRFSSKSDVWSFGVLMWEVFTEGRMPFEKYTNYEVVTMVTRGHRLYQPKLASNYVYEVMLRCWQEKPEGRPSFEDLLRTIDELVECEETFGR
Summary of the method: as §1

ERK4 = ERK4 (Homo sapiens, UniProt P31152); conditions: ERK4, 1 μM; read-out: % control
Summary of the method: as §1

ALK(C1156Y) = target: T3, ALK(C1156Y) (Homo sapiens, UniProt Q9UM73, C1156Y); conditions: read-out: % control
T3 construct: purchased KinomeScan®
Summary of the method: as §1

CLK4 = CLK4 (Homo sapiens, UniProt Q9HAZ1); conditions: CLK4, 1 μM; read-out: % control
Summary of the method: as §1

PRKD1 = target: T4, PRKD1 (Homo sapiens, UniProt Q15139); conditions: PRKD1, 1 μM; read-out: % control
T4 sequence (Q15139 1-912): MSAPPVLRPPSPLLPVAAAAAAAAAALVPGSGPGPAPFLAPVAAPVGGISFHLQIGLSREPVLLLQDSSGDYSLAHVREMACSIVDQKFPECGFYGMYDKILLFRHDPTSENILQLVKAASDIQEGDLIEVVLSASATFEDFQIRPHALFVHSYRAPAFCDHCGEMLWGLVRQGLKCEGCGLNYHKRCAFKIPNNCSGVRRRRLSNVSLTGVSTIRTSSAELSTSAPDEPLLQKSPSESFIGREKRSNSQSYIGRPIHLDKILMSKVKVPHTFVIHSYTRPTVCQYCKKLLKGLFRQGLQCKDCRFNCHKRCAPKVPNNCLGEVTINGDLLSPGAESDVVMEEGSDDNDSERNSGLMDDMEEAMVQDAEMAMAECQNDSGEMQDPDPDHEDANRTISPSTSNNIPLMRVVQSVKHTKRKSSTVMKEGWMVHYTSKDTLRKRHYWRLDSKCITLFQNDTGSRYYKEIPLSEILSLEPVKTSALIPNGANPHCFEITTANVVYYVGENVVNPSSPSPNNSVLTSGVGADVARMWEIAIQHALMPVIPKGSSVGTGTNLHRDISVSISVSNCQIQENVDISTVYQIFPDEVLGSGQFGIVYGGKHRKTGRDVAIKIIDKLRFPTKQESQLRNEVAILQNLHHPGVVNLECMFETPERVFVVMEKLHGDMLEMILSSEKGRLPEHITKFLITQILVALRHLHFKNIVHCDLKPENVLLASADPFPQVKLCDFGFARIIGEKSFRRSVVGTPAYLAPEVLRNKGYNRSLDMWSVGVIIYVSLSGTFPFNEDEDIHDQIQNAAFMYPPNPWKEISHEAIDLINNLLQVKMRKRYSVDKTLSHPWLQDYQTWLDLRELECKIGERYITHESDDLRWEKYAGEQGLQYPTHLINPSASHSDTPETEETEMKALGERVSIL
Summary of the method: as §1

CIT = CIT (Homo sapiens, UniProt O14578); conditions: read-out: % control
Summary of the method: as §1

PAK7 = PAK7 (Homo sapiens, UniProt Q9P286); conditions: PAK7, 1 μM; read-out: % control
Summary of the method: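 Test agents were profiled at a single concentration of 1 μM (DMSO vehicle) on a near-complete set of 468 kinases. Signal is reported relative to vehicle (100%) and a fully displacing control (0%).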

Sequence of CIT (O14578 whole entry): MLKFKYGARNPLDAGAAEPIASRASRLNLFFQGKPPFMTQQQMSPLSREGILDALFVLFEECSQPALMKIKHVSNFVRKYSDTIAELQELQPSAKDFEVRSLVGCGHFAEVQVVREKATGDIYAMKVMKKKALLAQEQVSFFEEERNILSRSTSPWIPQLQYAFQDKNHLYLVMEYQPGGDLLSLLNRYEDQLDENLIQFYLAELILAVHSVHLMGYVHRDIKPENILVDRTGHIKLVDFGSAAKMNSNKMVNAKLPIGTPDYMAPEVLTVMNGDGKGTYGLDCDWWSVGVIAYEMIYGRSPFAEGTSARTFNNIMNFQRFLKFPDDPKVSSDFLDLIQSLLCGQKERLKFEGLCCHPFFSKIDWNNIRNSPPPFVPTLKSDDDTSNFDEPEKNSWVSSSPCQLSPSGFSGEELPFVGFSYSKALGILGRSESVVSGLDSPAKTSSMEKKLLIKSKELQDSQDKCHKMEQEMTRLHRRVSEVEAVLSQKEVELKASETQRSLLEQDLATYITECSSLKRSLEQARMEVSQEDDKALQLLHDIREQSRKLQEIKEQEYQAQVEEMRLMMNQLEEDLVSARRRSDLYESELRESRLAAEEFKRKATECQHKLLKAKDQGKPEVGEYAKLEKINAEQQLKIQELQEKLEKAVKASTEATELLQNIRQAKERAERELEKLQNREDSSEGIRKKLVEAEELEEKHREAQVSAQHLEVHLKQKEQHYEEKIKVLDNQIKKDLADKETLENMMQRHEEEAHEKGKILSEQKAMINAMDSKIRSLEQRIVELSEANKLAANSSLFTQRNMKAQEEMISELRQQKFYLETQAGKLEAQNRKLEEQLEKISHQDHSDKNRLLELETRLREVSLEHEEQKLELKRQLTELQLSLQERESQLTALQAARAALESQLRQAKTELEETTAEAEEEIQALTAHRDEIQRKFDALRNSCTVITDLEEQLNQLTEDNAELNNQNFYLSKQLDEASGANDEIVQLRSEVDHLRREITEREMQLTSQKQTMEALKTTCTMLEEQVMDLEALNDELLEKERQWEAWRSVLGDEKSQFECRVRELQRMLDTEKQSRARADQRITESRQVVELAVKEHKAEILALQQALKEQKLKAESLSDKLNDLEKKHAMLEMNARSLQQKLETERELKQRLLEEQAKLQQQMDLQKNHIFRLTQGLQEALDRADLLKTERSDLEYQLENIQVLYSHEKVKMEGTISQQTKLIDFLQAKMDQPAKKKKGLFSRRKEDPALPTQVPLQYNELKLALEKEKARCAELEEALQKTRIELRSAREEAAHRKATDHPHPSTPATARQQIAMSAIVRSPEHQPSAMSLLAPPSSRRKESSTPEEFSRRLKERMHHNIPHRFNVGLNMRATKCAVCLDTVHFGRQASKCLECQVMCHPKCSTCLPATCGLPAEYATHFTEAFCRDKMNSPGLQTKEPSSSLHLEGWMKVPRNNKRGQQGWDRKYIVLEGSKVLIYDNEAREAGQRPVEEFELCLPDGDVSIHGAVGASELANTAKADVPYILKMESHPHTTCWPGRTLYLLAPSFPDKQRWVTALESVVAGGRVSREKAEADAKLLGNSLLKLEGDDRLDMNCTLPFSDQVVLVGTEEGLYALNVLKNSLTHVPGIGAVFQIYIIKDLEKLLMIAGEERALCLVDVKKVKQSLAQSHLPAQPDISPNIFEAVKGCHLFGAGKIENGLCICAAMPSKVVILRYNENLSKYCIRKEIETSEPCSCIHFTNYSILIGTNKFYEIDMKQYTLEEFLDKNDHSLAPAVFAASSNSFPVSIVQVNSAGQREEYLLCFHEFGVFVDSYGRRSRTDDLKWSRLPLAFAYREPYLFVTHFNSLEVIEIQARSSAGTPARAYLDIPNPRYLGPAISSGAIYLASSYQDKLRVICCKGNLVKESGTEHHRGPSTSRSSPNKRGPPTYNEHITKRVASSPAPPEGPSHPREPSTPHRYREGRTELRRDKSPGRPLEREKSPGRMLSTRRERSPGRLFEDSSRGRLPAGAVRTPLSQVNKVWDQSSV
Sequence of CLK4 (Q9HAZ1 whole entry): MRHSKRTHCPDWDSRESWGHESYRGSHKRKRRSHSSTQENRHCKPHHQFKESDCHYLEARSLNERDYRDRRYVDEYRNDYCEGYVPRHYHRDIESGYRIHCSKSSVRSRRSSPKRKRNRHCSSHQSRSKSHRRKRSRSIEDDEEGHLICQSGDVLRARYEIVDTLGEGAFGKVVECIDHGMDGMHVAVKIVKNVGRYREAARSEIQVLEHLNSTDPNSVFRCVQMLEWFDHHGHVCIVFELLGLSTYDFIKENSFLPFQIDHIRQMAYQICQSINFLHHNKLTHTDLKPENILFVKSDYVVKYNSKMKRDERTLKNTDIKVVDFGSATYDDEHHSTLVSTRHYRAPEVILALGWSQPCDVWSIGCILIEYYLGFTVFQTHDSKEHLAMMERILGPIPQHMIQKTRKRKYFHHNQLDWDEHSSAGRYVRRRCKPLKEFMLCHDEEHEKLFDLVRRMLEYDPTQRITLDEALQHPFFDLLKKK
T3 sequence (Q9UM73 19-1620 C1156Y): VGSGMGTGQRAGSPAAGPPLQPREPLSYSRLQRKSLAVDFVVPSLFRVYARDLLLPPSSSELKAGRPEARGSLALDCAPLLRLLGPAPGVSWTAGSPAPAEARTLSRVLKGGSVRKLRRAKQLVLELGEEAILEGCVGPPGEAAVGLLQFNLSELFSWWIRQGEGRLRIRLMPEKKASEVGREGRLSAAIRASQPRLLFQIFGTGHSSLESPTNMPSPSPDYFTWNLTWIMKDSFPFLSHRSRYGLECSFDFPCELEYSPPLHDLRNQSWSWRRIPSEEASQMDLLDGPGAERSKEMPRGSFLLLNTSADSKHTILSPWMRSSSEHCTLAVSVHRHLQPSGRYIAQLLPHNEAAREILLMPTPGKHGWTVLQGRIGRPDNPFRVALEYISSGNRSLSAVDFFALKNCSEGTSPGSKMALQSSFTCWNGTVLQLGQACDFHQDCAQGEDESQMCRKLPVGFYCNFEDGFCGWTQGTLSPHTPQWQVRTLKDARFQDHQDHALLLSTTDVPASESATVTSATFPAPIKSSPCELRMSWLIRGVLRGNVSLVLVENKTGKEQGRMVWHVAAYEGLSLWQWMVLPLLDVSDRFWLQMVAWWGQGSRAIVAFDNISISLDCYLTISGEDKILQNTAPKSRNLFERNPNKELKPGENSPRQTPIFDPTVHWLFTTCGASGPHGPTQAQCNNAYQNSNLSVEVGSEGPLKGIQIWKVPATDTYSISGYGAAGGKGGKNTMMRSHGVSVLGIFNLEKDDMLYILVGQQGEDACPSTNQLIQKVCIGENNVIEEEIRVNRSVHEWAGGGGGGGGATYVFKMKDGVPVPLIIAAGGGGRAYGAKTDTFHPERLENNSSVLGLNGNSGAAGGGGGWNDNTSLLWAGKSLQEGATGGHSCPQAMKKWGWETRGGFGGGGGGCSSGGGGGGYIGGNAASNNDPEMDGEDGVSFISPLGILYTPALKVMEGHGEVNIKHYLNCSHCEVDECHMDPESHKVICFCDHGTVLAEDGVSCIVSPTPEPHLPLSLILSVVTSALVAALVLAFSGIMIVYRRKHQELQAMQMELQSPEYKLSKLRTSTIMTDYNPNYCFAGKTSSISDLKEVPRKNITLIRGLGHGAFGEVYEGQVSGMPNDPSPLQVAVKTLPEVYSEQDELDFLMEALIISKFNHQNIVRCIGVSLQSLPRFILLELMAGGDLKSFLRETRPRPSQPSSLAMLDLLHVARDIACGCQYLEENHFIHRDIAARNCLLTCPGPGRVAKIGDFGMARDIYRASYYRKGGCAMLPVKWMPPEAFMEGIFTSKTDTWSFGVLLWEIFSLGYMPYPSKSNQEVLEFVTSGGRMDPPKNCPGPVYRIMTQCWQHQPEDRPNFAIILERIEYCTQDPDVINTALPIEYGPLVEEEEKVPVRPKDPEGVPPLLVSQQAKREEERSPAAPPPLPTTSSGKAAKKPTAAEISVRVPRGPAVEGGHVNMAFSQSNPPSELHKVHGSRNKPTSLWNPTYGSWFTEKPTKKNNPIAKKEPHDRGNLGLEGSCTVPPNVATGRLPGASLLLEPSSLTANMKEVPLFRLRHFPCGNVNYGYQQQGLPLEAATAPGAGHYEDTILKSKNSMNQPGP
Sequence of ERK4 (P31152 whole entry): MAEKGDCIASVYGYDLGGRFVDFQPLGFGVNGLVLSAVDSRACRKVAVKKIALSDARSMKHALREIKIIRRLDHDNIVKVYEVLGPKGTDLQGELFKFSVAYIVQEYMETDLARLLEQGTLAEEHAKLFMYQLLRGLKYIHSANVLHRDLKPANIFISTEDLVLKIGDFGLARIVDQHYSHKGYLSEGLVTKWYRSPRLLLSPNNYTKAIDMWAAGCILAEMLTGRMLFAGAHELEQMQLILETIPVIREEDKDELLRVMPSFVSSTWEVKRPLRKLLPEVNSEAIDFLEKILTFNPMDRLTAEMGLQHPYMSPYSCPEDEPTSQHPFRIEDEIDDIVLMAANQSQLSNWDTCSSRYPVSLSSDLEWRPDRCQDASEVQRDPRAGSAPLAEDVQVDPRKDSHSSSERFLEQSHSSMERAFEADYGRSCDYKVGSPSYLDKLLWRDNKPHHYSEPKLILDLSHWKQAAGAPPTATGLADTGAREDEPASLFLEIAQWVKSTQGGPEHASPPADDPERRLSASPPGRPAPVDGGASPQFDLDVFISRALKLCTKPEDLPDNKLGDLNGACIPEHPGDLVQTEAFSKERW

| Structure (SMILES) | remaining binding at 1 µM (MST1) | remaining binding at 1 µM (TEC) | remaining binding at 1 µM (ERK4) | remaining binding at 1 µM (ALK(C1156Y)) | remaining binding at 1 µM (CLK4) | remaining binding at 1 µM (PRKD1) | remaining binding at 1 µM (CIT) | remaining binding at 1 µM (PAK7) |
| --- | --- | --- | --- | --- | --- | --- | --- | --- |
| CNc1c(-c2cnn([C@H]3CCN(C(C)=O)C[C@@H]3F)c2)cnc2[nH]cc(Cl)c12 [Compound 77, 1-((3S,4S)-4-(4-(3-chloro-4-(methylamino)-1H-pyrrolo[2,3-b]pyridin-5-yl)-1H-pyrazol-1-yl)-3-fluoropiperidin-1-yl)ethan-1-one] | 93% | 100% | 90% | 47% | 72% | 58% | 6.8% | 100% |
| O=C(c1ccc(-c2cnc3[nH]cc(Cl)c3c2NC2CCCC2)cc1)N1CCC(N2CCOCC2)CC1 [Compound 101, (4-(3-chloro-4-(cyclopentylamino)-1H-pyrrolo[2,3-b]pyridin-5-yl)phenyl)(4-morpholinopiperidin-1-yl)methanone] | 82% | 93% | 93% | 66% | 42% | 48% | 21% | 95% |
| CNc1c(-c2ccc(C(=O)N3CCC(N4CCOCC4)CC3)cc2)cnc2[nH]cc(Cl)c12 [Compound 96, (4-(3-chloro-4-(methylamino)-1H-pyrrolo[2,3-b]pyridin-5-yl)phenyl)(4-morpholinopiperidin-1-yl)methanone] | 81% | 100% | 94% | 37% | 11% | 19% | 11% | 41% |
